Patent US12441762B2, “Hepatitis c virus NS3/4A protease inhibitors” (priority 2019, dated 2025)

Experiments:
Assay in all cases: biochemical
[1] = target: T1, HCV NS3/4A protease D168A variant (Hepatitis C virus genotype 1a, UniProt P27958, C1185S/D1194A); type: biochemical
T1 construct: His-tag (cleaved yes); made in house; host or cells: Escherichia coli BL21(DE3), PET28a vector
How it was run: (§1)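 Inhibitors pre-incubated 1 h at room temperature with 2 nM NS3/4A protease (GT1a C159S or D168A) in 50 mM Tris, 5% glycerol, 10 mM DTT, 0.6 mM LDAO, 4% DMSO, pH 7.5. Km from global Michaelis-Menten fit of inner-filter-corrected initial velocities; three independent data sets per inhibitor and construct.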

[2] = target: T2, wild-type HCV NS3/4A protease (GT1a) (Hepatitis C virus genotype 1a, UniProt P27958, C1185S); type: biochemical
T2 construct: His-tag (cleaved yes); made in house; host or cells: Escherichia coli BL21(DE3), PET28a vector
How it was run: as §1

HCV NS3/4A protease GT3 = HCV NS3/4A protease GT3 (Hepatitis C virus genotype 3a, UniProt Q81495)
[3] = tested on: HCV NS3/4A protease D168A variant; type: biochemical, Hepatitis C virus; conditions: Table S1, value in parentheses
How it was run: as §1

T1 sequence (P27958 1027-1208 C1185S/D1194A): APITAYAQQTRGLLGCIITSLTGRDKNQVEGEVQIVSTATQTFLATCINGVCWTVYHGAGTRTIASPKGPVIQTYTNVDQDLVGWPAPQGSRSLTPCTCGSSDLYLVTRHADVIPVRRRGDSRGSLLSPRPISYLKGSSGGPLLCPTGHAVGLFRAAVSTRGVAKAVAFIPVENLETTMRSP
Sequence of HCV NS3/4A protease GT3 (Q81495 1033-1214): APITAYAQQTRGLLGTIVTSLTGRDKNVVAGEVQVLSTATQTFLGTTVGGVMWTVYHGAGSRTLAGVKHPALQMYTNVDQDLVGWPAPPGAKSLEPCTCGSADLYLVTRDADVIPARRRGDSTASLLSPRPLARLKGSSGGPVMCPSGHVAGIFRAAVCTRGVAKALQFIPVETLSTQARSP
Sequence of HCV NS3/4A protease GT3 (Q81495 1664-1717): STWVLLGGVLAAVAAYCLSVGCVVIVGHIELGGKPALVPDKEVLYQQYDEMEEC
T2 sequence (P27958 1027-1208 C1185S): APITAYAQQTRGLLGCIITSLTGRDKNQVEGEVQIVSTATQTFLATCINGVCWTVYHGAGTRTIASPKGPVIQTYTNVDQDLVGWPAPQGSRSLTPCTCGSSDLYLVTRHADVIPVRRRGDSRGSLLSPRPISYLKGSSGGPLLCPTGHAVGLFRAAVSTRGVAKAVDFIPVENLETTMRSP

Structure (SMILES)	Ki [1] [nM]	Ki [2] [nM]	Ki (HCV NS3/4A protease GT3) [nM]	fold increase in potency against D168A compared to the parent compound ([1]; compared to parent compound) [fold]	Fold Change of D168A Ki with respect to GT1a wild-type [3]	fold increase in potency towards WT compared to the parent compound ([2]; compared to parent compound) [fold]
COc1ccc2nc(C(F)(F)F)c(O[C@@H]3C[C@H]4C(=O)N[C@]5(C(=O)NS(=O)(=O)C6(C)CC6)C[C@H]5/C=C\CCCCC[C@H](NC(=O)O[C@@H](C)C(C)C)C(=O)N4C3)nc2c1 [NR01-101, (S)-3-Methylbutan-2-yl ((2R,6S,13aS,14aR,16aS,Z)-2-((7-methoxy-3-(trifluoromethyl)quinoxalin-2-yl)oxy)-14a-(((1-methylcyclopropyl)sulfonyl)carbamoyl)-5,16-dioxo-1,2,3,5,6,7,8,9,10,11,13a,14,14a,15,16,16a-hexadecahydrocyclopropa [e]pyrrolo[1,2-a][1,4]diazacyclopentadecin-6-yl)carbamate]	26.2 ± 2.3	6.1 ± 0.57	447 ± 25	–	–	–
COc1ccc2nc(C)c(O[C@@H]3C[C@H]4C(=O)N[C@]5(C(=O)NS(=O)(=O)C6(C)CC6)C[C@H]5/C=C\CCCCC[C@H](NC(=O)O[C@H](C)C(F)(F)F)C(=O)N4C3)nc2c1 [NR01-145, (R)-1,1,1-Trifluoropropan-2-yl ((2R,6S,13aS,14aR,16aS,Z)-2-((7-methoxy-3-methylquinoxalin-2-yl)oxy)-14a-(((1-methylcyclopropyl)sulfonyl)carbamoyl)-5,16-dioxo-1,2,3,5,6,7,8,9,10,11,13a,14,14a,15,16,16a-hexadecahydrocyclopropa[e]pyrrolo[1,2-a][1,4]diazacyclopentadecin-6-yl)carbamate]	8 ± 1	1.1 ± 0.1	122 ± 11	–	–	–
COc1ccc2nc(C)c(O[C@@H]3C[C@H]4C(=O)N[C@]5(C(=O)NS(=O)(=O)C6(C)CC6)C[C@H]5/C=C\CCCCC[C@H](NC(=O)O[C@@H]5CCC[C@H]5F)C(=O)N4C3)nc2c1 [NR02-08, (1R,2R)-2-Fluorocyclopentyl ((2R,6S,13aS,14aR,16aS,Z)-2-((7-methoxy-3-methylquinoxalin-2-yl)oxy)-14a-(((1-methylcyclopropyl)sulfonyl)carbamoyl)-5,16-dioxo-1,2,3,5,6,7,8,9,10,11,13a,14,14a,15,16,16a-hexadecahydrocyclopropa[e]pyrrolo [1,2-a][1,4]diazacyclopentadecin-6-yl)carbamate]	16 ± 1	2.3 ± 0.2	216 ± 32	–	–	–
COc1ccc2nc(C(F)(F)F)c(O[C@@H]3C[C@H]4C(=O)N[C@]5(C(=O)NS(=O)(=O)C6(C)CC6)C[C@H]5/C=C\CCCCC[C@H](NC(=O)OC5(C)CCCC5)C(=O)N4C3)nc2c1 [NR02-15, 1-Methylcyclopentyl ((2R,6S,13aS,14aR,16aS,Z)-2-((7-methoxy-3-(trifluoromethyl)quinoxalin-2-yl)oxy)-14a-(((1-methylcyclopropyl)sulfonyl)carbamoyl)-5,16-dioxo-1,2,3,5,6,7,8,9,10,11,13a,14,14a,15,16,16a-hexadecahydrocyclopropa[e]pyrrolo[1,2-a][1,4]diazacyclopentadecin-6-yl)carbamate]	11.8 ± 1.8	0.9 ± 0.1	161 ± 13	–	–	–
COc1ccc2nc(C)c(O[C@@H]3C[C@H]4C(=O)N[C@]5(C(=O)NS(=O)(=O)C6(C)CC6)C[C@H]5/C=C\CCCCC[C@H](NC(=O)OC5(C)CC5)C(=O)N4C3)nc2c1 [NR02-24, 1-Methylcyclopropyl ((2R,6S,13aS,14aR,16aS,Z)-2-((7-methoxy-3-methylquinoxalin-2-yl)oxy)-14a-(((1-methylcyclopropyl)sulfonyl)carbamoyl)-5,16-dioxo-1,2,3,5,6,7,8,9,10,11,13a,14,14a,15,16,16a-hexadecahydrocyclopropa[e]pyrrolo [1,2-a][1,4]diazacyclopentadecin-6-yl)carbamate]	27.9 ± 4.1	4.44 ± 0.3	–	~2	(6) fold	–
COc1ccc2nc(C(F)(F)F)c(O[C@@H]3C[C@H]4C(=O)N[C@]5(C(=O)NS(=O)(=O)C6(C)CC6)C[C@H]5/C=C\CCCCC[C@H](NC(=O)O[C@@H](C)C(F)(F)F)C(=O)N4C3)nc2c1 [NR02-32, (S)-1,1,1-Trifluoropropan-2-yl ((2R,6S,13aS,14aR,16aS,Z)-2-((7-methoxy-3-(trifluoromethyl)quinoxalin-2-yl)oxy)-14a-(((1-methylcyclopropyl)sulfonyl)carbamoyl)-5,16-dioxo-1,2,3,5,6,7,8,9,10,11,13a,14,14a,15,16,16a-hexadecahydrocyclopropa[e]pyrrolo[1,2-a][1,4]diazacyclopentadecin-6-yl)carbamate]	44.6 ± 7.3	7.69 ± 0.89	580 ± 50	–	–	–
COc1ccc2nc(C(F)(F)F)c(O[C@@H]3C[C@H]4C(=O)N[C@]5(C(=O)NS(=O)(=O)C6(C)CC6)C[C@H]5/C=C\CCCCC[C@H](NC(=O)O[C@@H](C)C5CC5)C(=O)N4C3)nc2c1 [NR02-33, (S)-1-Cyclopropylethyl ((2R,6S,13aS,14aR,16aS,Z)-2-((7-methoxy-3-(trifluoromethyl)quinoxalin-2-yl)oxy)-14a-(((1-methylcyclopropyl)sulfonyl)carbamoyl)-5,16-dioxo-1,2,3,5,6,7,8,9,10,11,13a,14,14a,15,16,16a-hexadecahydrocyclopropa[e]pyrrolo[1,2-a][1,4]diazacyclopentadecin-6-yl)carbamate]	54.4 ± 3.7	10.4 ± 0.94	412 ± 21	–	–	–
COc1ccc2nc(C(F)(F)F)c(O[C@@H]3C[C@H]4C(=O)N[C@]5(C(=O)NS(=O)(=O)C6(C)CC6)C[C@H]5/C=C\CCCCC[C@H](NC(=O)OC5CC5)C(=O)N4C3)nc2c1 [NR02-46, Cyclopropyl ((2R,6S,13aS,14aR,16aS,Z)-2-((7-methoxy-3-(trifluoromethyl)quinoxalin-2-yl)oxy)-14a-(((1-methylcyclopropyl)sulfonyl)carbamoyl)-5,16-dioxo-1,2,3,5,6,7,8,9,10,11,13a,14,14a,15,16,16a-hexadecahydrocyclopropa[e]pyrrolo[1,2-a][1,4]diazacyclopentadecin-6-yl)carbamate]	67.5 ± 3.9	13.6 ± 0.9	522 ± 25	–	–	–
COc1ccc2nc(C)c(O[C@@H]3C[C@H]4C(=O)N[C@]5(C(=O)NS(=O)(=O)C6(C)CC6)C[C@H]5/C=C\CCCCC[C@H](NC(=O)OCC5(C)CC5(F)F)C(=O)N4C3)nc2c1 (stereo partly drawn) [NR02-55, (2,2-Difluoro-1-methylcyclopropyl)methyl ((2R,6S,13aS,14aR,16aS,Z)-2-((7-methoxy-3-methylquinoxalin-2-yl)oxy)-14a-(((1-methylcyclopropyl)sulfonyl)carbamoyl)-5,16-dioxo-1,2,3,5,6,7,8,9,10,11,13a,14,14a,15,16,16a-hexadecahydrocyclopropa[e]pyrrolo[1,2-a][1,4]diazacyclopentadecin-6-yl)carbamate]	4.7 ± 0.5	3.1 ± 0.3	100 ± 12	–	–	–
COc1ccc2nc(C(F)(F)F)c(O[C@@H]3C[C@H]4C(=O)N[C@]5(C(=O)NS(=O)(=O)C6(C)CC6)C[C@H]5/C=C\CCCCC[C@H](NC(=O)OCC5(C)CC5(F)F)C(=O)N4C3)nc2c1 (stereo partly drawn) [NR02-56, (2,2-Difluoro-1-methylcyclopropyl)methyl ((2R,6S,13aS,14aR,16aS,Z)-2-((7-methoxy-3-(trifluoromethyl)quinoxalin-2-yl)oxy)-14a-(((1-methylcyclopropyl)sulfonyl)carbamoyl)-5,16-dioxo-1,2,3,5,6,7,8,9,10,11,13a,14,14a,15,16,16a-hexadecahydrocyclopropa[e]pyrrolo[1,2-a][1,4]diazacyclopentadecin-6-yl)carbamate]	7.1 ± 0.9	2.1 ± 0.5	336 ± 47	–	–	–
COc1ccc2nc(C)c(O[C@@H]3C[C@H]4C(=O)N[C@]5(C(=O)NS(=O)(=O)C6(C)CC6)C[C@H]5/C=C\CCCCC[C@H](NC(=O)OC5(C(F)(F)F)CCC5)C(=O)N4C3)nc2c1 [NR02-58, 1-(Trifluoromethyl)cyclobutyl ((2R,6S,13aS,14aR,16aS,Z)-2-((7-methoxy-3-methylquinoxalin-2-yl)oxy)-14a-(((1-methylcyclopropyl)sulfonyl)carbamoyl)-5,16-dioxo-1,2,3,5,6,7,8,9,10,11,13a,14,14a,15,16,16a-hexadecahydrocyclopropa[e]pyrrolo[1,2-a][1,4]diazacyclopentadecin-6-yl)carbamate]	11.3 ± 2	1.5 ± 0.2	96 ± 17	–	–	–
COc1ccc2nc(C)c(O[C@@H]3C[C@H]4C(=O)N[C@]5(C(=O)NS(=O)(=O)C6(C)CC6)C[C@H]5/C=C\CCCCC[C@H](NC(=O)OC5(C)CCC5)C(=O)N4C3)nc2c1 [NR02-61, 1-Methylcyclobutyl ((2R,6S,13aS,14aR,16aS,Z)-2-((7-methoxy-3-methylquinoxalin-2-yl)oxy)-14a-(((1-methylcyclopropyl)sulfonyl)carbamoyl)-5,16-dioxo-1,2,3,5,6,7,8,9,10,11,13a,14,14a,15,16,16a-hexadecahydrocyclopropa[e]pyrrolo [1,2-a][1,4]diazacyclopentadecin-6-yl)carbamate]	46.4 ± 3.4	1.4 ± 0.13	–	–	(33) fold	4
COc1ccc2nc(C(F)(F)F)c(O[C@@H]3C[C@H]4C(=O)N[C@]5(C(=O)NS(=O)(=O)C6(C)CC6)C[C@H]5/C=C\CCCCC[C@H](NC(=O)O[C@@H]5C[C@@H]6C[C@@H]6C5)C(=O)N4C3)nc2c1 [NR04-49, (1R,3R,5S)-Bicyclo[3.1.0]hexan-3-yl ((2R,6S,13aS,14aR,16aS,Z)-2-((7-methoxy-3-(trifluoromethyl)quinoxalin-2-yl)oxy)-14a-(((1-methylcyclopropyl)sulfonyl)carbamoyl)-5,16-dioxo-1,2,3,5,6,7,8,9,10,11,13a,14,14a,15,16,16a-hexadecahydrocyclopropa[e]pyrrolo[1,2-a][1,4]diazacyclopentadecin-6-yl)carbamate]	–	–	170 ± 13	–	–	–
